Experiments:
p-ERM = p-ERM protein levels in HBE4 cells (Western blot); format: cell-based, human; conditions: following treatment
HBE4 cells = assay: Wound healing assay (gap closure); format: cell-based, human; conditions: HBE4, vs Scr control
Source text: (§1) For cell migration, we used two complementary assays. […] To compensate potential differences in the cell numbers among different treatment conditions, we seeded 10% less cells for Ant-163 treated HBE4 cells and 10% more cells for piR-L-163 transfected H1792 cells.
(§2) Two complimentary methods were used. For quantitative fluorescent dye assay, Innocyto™ Cell migration Assay kit (EMD Millipore) was used. Briefly, 24 hrs after treatment, 1×10^5 cells (10% less for Ant-163 treated cells or 10% more for piR-L-163 treated cells) were loaded to the upper chamber with growth factor-free Keratinocyte-SFM for (HBE4 cells) or serum-free DMEM (for H1792 cells) with the bottom chamber exposed to completed culture medium. Negative controls were used with 3 μM Latrunculin A. After 12 hrs incubation, fluorescence was measured using a fluorescence plate reader 485 nm (excitation) and 520 nm (emission) according to the manufacturer's instruction. For wound-healing assay, cells (24 hrs after treatment with different DNA or RNA oligonucleotides) were grown to confluence followed by scratching with a pipette tip to create a gap. The floating cells were removed and the gaps were monitored/photographed every 12 hrs.

ERM proteins = assay: Pull down with biotin-conjugated piR-L-163 from HBE4 cell lysates, LC-MS-MS; format: binding, human; conditions: vs Scr control RNA
Source text: Because of the unexpected cellular localizations of piR-L-163 during cell cycle progression, we suspected that piR-L-163 plays a biological role through interaction with proteins. To identify potential piR-L-163 interacting proteins, biotin-conjugated piR-L-163 RNA oligonucleotides were used as a bait to pull down cellular binding proteins in HBE4 cells.
For IP using piR-L-163, synthesized biotin labeled RNA oligonucleotides (/5′Biosg/[…]-3′) (SEQ ID NO:502) was used and scrambled RNA (/5′Biosg/[…]-3′) (SEQ ID NO:503) used as a control.
Protein extracts from 1×10^7 cells using HKMG lysis buffer (10 mM HEPES pH 7.9, 100 mM KCL, 5 mM MgCl2, 10% glycerol, 1 mM dithiothreitol, 0.1% NP40) with protease and phosphatase inhibitors (Roche) were incubated with 1 μg biotin-labeled RNA for 16 hr at 4° C. with rotation after pre-clearing with streptavidin beads, then coupled to 10 μl 50% of streptavidin agarose beads (Sigma-Aldrich). After incubation, the biotin-labeled oligonucleotide-coupled streptavidin beads were washed four times with HKMG lysis buffer. Samples were denatured in SDS protein loading buffer before running on a SDS-acrylamide gel.
The target band for mass spectrometry was performed. […]
The processed samples were analyzed using a nanoscale reverse-phase liquid chromatography using an Xtreme Simple nanoLC system (CVC/Q24 MicroTech). […]

F-actin and EBP50 = assay: Binding of p-ERM/moesin with F-actin and EBP50 in IP products of H522 cells; format: cell-based, human; conditions: together with Moesin-WT
H1792 cells = assay: Wound healing assay (gap closure); format: cell-based, human; conditions: H1792, vs Scr control, Ant-163 or a mutant piR-L-163
Source text: as §1, §2

Substance	p-ERM protein levels (p-ERM)	gap closure (HBE4 cells)	binding to ERM proteins (pull down) (ERM proteins)	binding of moesin with F-actin and EBP50 (F-actin and EBP50)	gap closure (H1792 cells)
Ant-163: DNA sequence antisense to piR-L-163, SEQ ID NO:496, 5′-GGTCAGAGAATCAAAGTAACATCATGATAT-3′ (DNA, backbone and methylation of C not given here)	not significantly changed	faster gap closure	–	–	–
piR-L-163: sprRNA, SEQ ID NO:282; piRNA-L aligned to intron 10 of LAMC2; AUAUCAUGAUGUUACUUUGAUUCUCUGACC with 3′ 2′-O-methylation (listed as RNA, chemistry not fully specified; listed as Homo sapiens)	–	–	binds to ERM proteins	enhanced binding with F-actin and EBP50	slower gap closure

— patent publication US10889812B2, “Short non-coding protein regulatory RNAs (sprRNAs) and methods of use” (University of Maryland, Baltimore, priority 2014, dated 2021)
